Experimental findings from patent US10246429B2, “Vinyl fluoride cyclopropyl fused thiazin-2-amine compounds as beta-secretase inhibitors and methods of use” (AMGEN INC., priority 2015, dated 2019) are described below.

The target of assay [1] is BACE2 (Homo sapiens (Human), UniProt Q9Y5Z0). Nature of the assay: In vitro enzymatic BACE2 FRET assay. As to conditions: read-out: IC50 IP (μM) BACE2 Enzyme. The format is biochemical.
Description: (§1) In Vitro Enzymatic BACE1 and BACE2 FRET (Fluorescence Resonance Energy Transfer) Assays (Enzyme Assay Data in Table 1)
For assay [2], the target named is T1, BACE1 (Homo sapiens (Human), UniProt P56817). The experiment in a line: In vitro enzymatic BACE1 FRET assay. As to conditions: read-out: IC50 IP (μM) BACE1 Enzyme. The format is biochemical.
Target sequence in this assay (P56817 46-501): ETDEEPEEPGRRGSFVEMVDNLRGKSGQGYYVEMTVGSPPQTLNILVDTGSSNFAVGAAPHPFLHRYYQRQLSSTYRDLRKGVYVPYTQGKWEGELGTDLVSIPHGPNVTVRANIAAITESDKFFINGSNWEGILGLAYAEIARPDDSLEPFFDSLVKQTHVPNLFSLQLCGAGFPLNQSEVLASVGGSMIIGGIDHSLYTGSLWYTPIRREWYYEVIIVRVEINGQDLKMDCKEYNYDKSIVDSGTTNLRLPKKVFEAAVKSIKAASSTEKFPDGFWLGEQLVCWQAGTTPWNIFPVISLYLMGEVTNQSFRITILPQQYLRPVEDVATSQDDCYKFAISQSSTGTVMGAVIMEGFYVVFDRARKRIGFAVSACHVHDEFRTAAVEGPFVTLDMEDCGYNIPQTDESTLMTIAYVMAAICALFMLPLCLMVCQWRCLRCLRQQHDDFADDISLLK
Description: as §1
For assay [3], the target named is Cathepsin D (CatD) (Homo sapiens (Human), UniProt P07339). The experiment in a line: CatD assay. Format: biochemical. As to conditions: read-out: IC50 IP (μM) CatD.
The target of assay [4] is T1, BACE1. The experiment in a line: BACE1 cell assay. The format is cell-based. Conditions: for IC50: read-out: IC50 IP (μM) BACE1 Cell.
Target sequence in this assay (P56817 46-501, species assumed): as the sequence (P56817 46-501) above

pIC50: −log10 of the molar value.

In general, IC50 refers to the point on the concentration scale where inhibition reaches its midpoint. As usually defined, the pIC50 is the IC50 on a negative log10 scale, so that one unit is a factor of ten.

Cathepsin D (CatD), sequence (P07339 65-412, species assumed): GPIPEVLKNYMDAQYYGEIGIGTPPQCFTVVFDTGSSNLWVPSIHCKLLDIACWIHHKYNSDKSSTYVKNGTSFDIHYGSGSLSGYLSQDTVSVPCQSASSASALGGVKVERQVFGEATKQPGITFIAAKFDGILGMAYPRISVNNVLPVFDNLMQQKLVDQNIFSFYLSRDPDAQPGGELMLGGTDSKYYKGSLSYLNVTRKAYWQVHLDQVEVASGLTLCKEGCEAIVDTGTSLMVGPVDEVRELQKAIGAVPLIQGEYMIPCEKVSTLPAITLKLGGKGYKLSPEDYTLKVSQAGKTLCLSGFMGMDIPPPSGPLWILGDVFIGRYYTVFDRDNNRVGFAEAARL
BACE2, sequence (Q9Y5Z0 63-518): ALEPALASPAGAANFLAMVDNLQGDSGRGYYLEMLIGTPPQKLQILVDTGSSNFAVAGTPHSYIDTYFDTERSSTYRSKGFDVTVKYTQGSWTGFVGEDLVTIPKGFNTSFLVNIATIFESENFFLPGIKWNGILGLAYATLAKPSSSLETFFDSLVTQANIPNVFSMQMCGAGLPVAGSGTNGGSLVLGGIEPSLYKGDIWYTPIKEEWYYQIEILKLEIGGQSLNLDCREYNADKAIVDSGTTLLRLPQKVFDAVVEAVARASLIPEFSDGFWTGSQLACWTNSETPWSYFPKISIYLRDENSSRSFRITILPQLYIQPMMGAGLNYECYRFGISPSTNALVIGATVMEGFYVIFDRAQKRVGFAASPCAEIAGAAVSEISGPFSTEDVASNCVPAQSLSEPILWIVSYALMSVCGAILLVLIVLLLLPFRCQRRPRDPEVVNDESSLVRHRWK

Regarding `CC#CCOc1cnc(/C(F)=C/c2cnc(F)c([C@@]3(C)N=C(N)S[C@@]4(C(=O)N(C)C)C[C@H]43)c2)cn1` [Example 289, (1S,5S,6S)-3-amino-5-(5-((Z)-2-(5-(but-2-yn-1-yloxy)pyrazin-2-yl)-2-fluorovinyl)-2-fluoropyridin-3-yl)-N,N,5-trimethyl-2-thia-4-azabicyclo[4.1.0]hept-3-ene-1-carboxamide], the IC50 in assay [1] was 0.022 µM; in assay [2] it was 0.0008 µM; in assay [3], 227 µM; in assay [4] it was 0.002 µM.

With `CN(C)C(=O)[C@]12C[C@H]1[C@@](C)(c1cc(/C=C(\F)c3cnc(OCC(F)(F)C(F)F)cn3)cnc1F)N=C(N)S2` [Example 291, (1S,5S,6S)-3-amino-5-(2-fluoro-5-((Z)-2-fluoro-2-(5-(2,2,3,3-tetrafluoropropoxy)pyrazin-2-yl)vinyl)pyridin-3-yl)-N,N,5-trimethyl-2-thia-4-azabicyclo[4.1.0]hept-3-ene-1-carboxamide], the IC50 in assay [1] is 0.106 µM; in assay [2], 0.0406 µM; in assay [3], 290 µM. Also, the pIC50 in assay [4] was 6.49.

As to `C#CCOc1cnc(/C(F)=C/c2cnc(F)c([C@@]3(C)N=C(N)S[C@@]4(C(=O)OC)C[C@H]43)c2)cn1` [Example 294, (1S,5S,6S)-methyl 3-amino-5-(2-fluoro-5-((Z)-2-fluoro-2-(5-(prop-2-yn-1-yloxy)pyrazin-2-yl)vinyl)pyridin-3-yl)-5-methyl-2-thia-4-azabicyclo[4.1.0]hept-3-ene-1-carboxylate methanone], the half-inhibitory concentration (IC50) amounted to 2.76 µM in assay [1], 0.0089 µM in assay [2], 400 µM in assay [3] and 0.0949 µM in assay [4].

Regarding `C#CCOc1cnc(/C(F)=C/c2cnc(F)c([C@@]3(C)N=C(N)S[C@@]4(C(=O)N5CC[C@@H](F)C5)C[C@H]43)c2)cn1` [Example 295, ((1S,5S,6S)-3-amino-5-(2-fluoro-5-((Z)-2-fluoro-2-(5-(prop-2-yn-1-yloxy)pyrazin-2-yl)vinyl)pyridin-3-yl)-5-methyl-2-thia-4-azabicyclo[4.1.0]hept-3-en-1-yl)((R)-3-fluoropyrrolidin-1-yl)methanone], the half-maximal inhibitory concentration (IC50) amounted to 0.078 µM in assay [1], 0.0008 µM in assay [2], 58.6 µM in assay [3] and 0.0004 µM in assay [4].

With `CN(C)C(=O)[C@]12C[C@H]1[C@@](C)(c1cc(/C=C(\F)c3cnc(C#N)cn3)cnc1F)N=C(N)S2` [Example 296, (1S,5S,6S)-3-amino-5-(5-((Z)-2-(5-cyanopyrazin-2-yl)-2-fluorovinyl)-2-fluoropyridin-3-yl)-N,N,5-trimethyl-2-thia-4-azabicyclo[4.1.0]hept-3-ene-1-carboxamide], the values for the IC50 in assay [1], in assay [2] and in assay [3] were 0.037 µM, 0.0119 µM and 290 µM, respectively. In assay [4], this compound gave a pIC50 of 7.36.

For `C#CCOc1cnc(/C(F)=C/c2cnc(F)c([C@@]3(C)N=C(N)S[C@@]4(C(=O)NCC(F)F)C[C@H]43)c2)cn1` [Example 300, (1S,5S,6S)-3-amino-N-(2,2-difluoroethyl)-5-(2-fluoro-5-((Z)-2-fluoro-2-(5-(prop-2-yn-1-yloxy)pyrazin-2-yl)vinyl)pyridin-3-yl)-5-methyl-2-thia-4-azabicyclo[4.1.0]hept-3-ene-1-carboxamide], the IC50 in assay [1] was determined as 0.411 µM; in assay [2], 0.0025 µM; in assay [3] it was 20 µM. The same compound gave a pIC50 in assay [4] of 8.18.

On to `C[C@H]1[C@@H](F)CCN1C(=O)[C@]12C[C@H]1[C@@](C)(c1cc(/C=C(\F)c3ccc(C#N)cn3)ccc1F)N=C(N)S2` [Example 306, 6-((Z)-2-(3-((1S,5S,6S)-3-amino-1-((2S,3S)-3-fluoro-2-methylpyrrolidine-1-carbonyl)-5-methyl-2-thia-4-azabicyclo[4.1.0]hept-3-en-5-yl)-4-fluorophenyl)-1-fluorovinyl)nicotinonitrile], for which the half-maximal inhibitory concentration (IC50) in assay [1] came to 0.111 µM; in assay [2] it was 0.002 µM; in assay [3], 16.2 µM; in assay [4] it was 0.001 µM.

For `C[C@]1(c2cc(/C=C(\F)c3ccc(C#N)cn3)ccc2F)N=C(N)S[C@@]2(C(=O)N3CCOC4(COC4)C3)C[C@H]21` [Example 308, 6-((Z)-2-(3-((1S,5S,6S)-3-amino-5-methyl-1-(2,5-dioxa-8-azaspiro[3.5]nonane-8-carbonyl)-2-thia-4-azabicyclo[4.1.0]hept-3-en-5-yl)-4-fluorophenyl)-1-fluorovinyl)nicotinonitrile], the IC50 in assay [1] came out at 0.013 µM; in assay [2], 0.0021 µM; in assay [3] it was 296 µM; in assay [4] it was 0.001 µM.

Consider `C[C@@H]1COC[C@H](C)N1C(=O)[C@]12C[C@H]1[C@@](C)(c1cc(/C=C(\F)c3ccc(C#N)cn3)ccc1F)N=C(N)S2` [Example 313, 6-((Z)-2-(3-((1S,5S,6S)-3-amino-1-((3S,5R)-3,5-dimethylmorpholine-4-carbonyl)-5-methyl-2-thia-4-azabicyclo[4.1.0]hept-3-en-5-yl)-4-fluorophenyl)-1-fluorovinyl)nicotinonitrile], for which the concentration for half-maximal inhibition (IC50) in assay [1] worked out at 0.147 µM; in assay [2] it was 0.0019 µM; in assay [3], 257 µM; in assay [4] it was 0.0022 µM.

For the compound `C[C@@H]1COC[C@@H](C)N1C(=O)[C@]12C[C@H]1[C@@](C)(c1cc(/C=C(\F)c3ccc(C#N)cn3)ccc1F)N=C(N)S2` [Example 314, 6-((Z)-2-(3-((1S,5S,6S)-3-amino-1-((3R,5R)-3,5-dimethylmorpholine-4-carbonyl)-5-methyl-2-thia-4-azabicyclo[4.1.0]hept-3-en-5-yl)-4-fluorophenyl)-1-fluorovinyl)nicotinonitrile], the half-inhibitory concentration (IC50) is 0.24 µM in assay [1], 0.0047 µM in assay [2], 447 µM in assay [3] and 0.0067 µM in assay [4].

As to `C[C@]1(c2cc(/C=C(\F)c3ccc(C#N)cn3)ccc2F)N=C(N)S[C@@]2(C(=O)N3C4CCC3COC4)C[C@H]21` [Example 315, 6-((Z)-2-(3-((1S,5S,6S)-3-amino-1-(3-oxa-8-azabicyclo[3.2.1]octane-8-carbonyl)-5-methyl-2-thia-4-azabicyclo[4.1.0]hept-3-en-5-yl)-4-fluorophenyl)-1-fluorovinyl)nicotinonitrile], the values for the half-maximal inhibitory concentration (IC50) in assay [1], in assay [2] and in assay [3] were 0.071 µM, 0.0016 µM and 390 µM, respectively. Moreover, the negative-log IC50 (pIC50) in assay [4] is 8.89.

As to `CC(C)[C@H]1CN(C(=O)[C@]23C[C@H]2[C@@](C)(c2cc(/C=C(\F)c4ccc(C#N)cn4)ccc2F)N=C(N)S3)CCO1` [Example 316, 6-((Z)-2-(3-((1S,5S,6S)-3-amino-1-((S)-2-isopropylmorpholine-4-carbonyl)-5-methyl-2-thia-4-azabicyclo[4.1.0]hept-3-en-5-yl)-4-fluorophenyl)-1-fluorovinyl)nicotinonitrile], the IC50 was determined as 0.033 µM in assay [1], 0.003 µM in assay [2], 170 µM in assay [3] and 0.007 µM in assay [4].

In the case of `CC(C)[C@@H]1CN(C(=O)[C@]23C[C@H]2[C@@](C)(c2cc(/C=C(\F)c4ccc(C#N)cn4)ccc2F)N=C(N)S3)CCO1` [Example 317, 6-((Z)-2-(3-((1S,5S,6S)-3-amino-1-((R)-2-isopropylmorpholine-4-carbonyl)-5-methyl-2-thia-4-azabicyclo[4.1.0]hept-3-en-5-yl)-4-fluorophenyl)-1-fluorovinyl)nicotinonitrile], the 50% inhibitory concentration (IC50) turned out to be 0.007 µM in assay [1], 0.0018 µM in assay [2], 115 µM in assay [3] and 0.007 µM in assay [4].

For `C[C@]1(c2cc(/C=C(\F)c3ccc(C#N)cn3)ccc2F)N=C(N)S[C@@]2(C(=O)N3CCOC4(CC4)C3)C[C@H]21` [Example 318, 6-((Z)-2-(3-((1S,5S,6S)-3-amino-5-methyl-1-(4-oxa-7-azaspiro[2.5]octane-7-carbonyl)-2-thia-4-azabicyclo[4.1.0]hept-3-en-5-yl)-4-fluorophenyl)-1-fluorovinyl)nicotinonitrile], the IC50 is 0.051 µM in assay [1], 0.0029 µM in assay [2], 108 µM in assay [3] and 0.0033 µM in assay [4].

In the case of `C[C@]1(c2cc(/C=C(\F)c3ccc(C#N)cn3)ccc2F)N=C(N)S[C@@]2(C(=O)N3CC4CCC(C3)O4)C[C@H]21` [Example 319], the IC50 worked out at 0.097 µM in assay [1], 0.0025 µM in assay [2], 318 µM in assay [3] and 0.0017 µM in assay [4].

Consider `C[C@]1(c2cc(/C=C(\F)c3ccc(C#N)cn3)ccc2F)N=C(N)S[C@@]2(C(=O)N3CC4(CCOCC4)C3)C[C@H]21` [Example 320, 6-((Z)-2-(3-((1S,5S,6S)-3-amino-5-methyl-1-(7-oxa-2-azaspiro[3.5]nonane-2-carbonyl)-2-thia-4-azabicyclo[4.1.0]hept-3-en-5-yl)-4-fluorophenyl)-1-fluorovinyl)nicotinonitrile], for which the IC50 in assay [1] is 0.039 µM; in assay [2], 0.0052 µM; in assay [3], 292 µM; in assay [4], 0.0024 µM.

As for `C[C@H]1CN(C(=O)[C@]23C[C@H]2[C@@](C)(c2cc(/C=C(\F)c4ccc(C#N)cn4)ccc2F)N=C(N)S3)CCO1` [Example 321, 6-((Z)-2-(3-((1S,5S,6S)-3-amino-5-methyl-1-((S)-2-methylmorpholine-4-carbonyl)-2-thia-4-azabicyclo[4.1.0]hept-3-en-5-yl)-4-fluorophenyl)-1-fluorovinyl)nicotinonitrile], the IC50 in assay [1] was 0.111 µM; in assay [2], 0.0035 µM; in assay [3] it was 578 µM; in assay [4], 0.0027 µM.

With `CC(C)[C@@H]1COCCN1C(=O)[C@]12C[C@H]1[C@@](C)(c1cc(/C=C(\F)c3ccc(C#N)cn3)ccc1F)N=C(N)S2` [Example 322, 6-((Z)-2-(3-((1S,5S,6S)-3-amino-1-((R)-3-isopropylmorpholine-4-carbonyl)-5-methyl-2-thia-4-azabicyclo[4.1.0]hept-3-en-5-yl)-4-fluorophenyl)-1-fluorovinyl)nicotinonitrile], the half-inhibitory concentration (IC50) came to 0.03 µM in assay [1], 0.0021 µM in assay [2], 27.8 µM in assay [3] and 0.0026 µM in assay [4].
